Results: ChEMBL document CHEMBL5120831, “Pep5-based antitumor peptides containing multifunctional fragments with enhanced activity and synergistic effect” (Eur J Med Chem, 2022)
Activity calls are given as the source filed them. The calls are words filed in the database; no cut-off is given here. Numbered stars: 1 amine (or outer) side, 2 acyl side, 3 side chain; on linkers, the order of the positions; unused ones are H or OH. Bridge positions count the residues as written; N and C are the ends. Square brackets hold non-standard residues; d marks the D form. Peptide text beside a SMILES is read from it. I, II: the chains in the order shown. ξ: configuration not given here. X1 = O=C([C@H](Cc1c[nH]c2ccccc12)N(c1ccc([N+](=O)[O-])c2nonc12)[*:1])[*:2]; ξN = NC(=O)CC(N)C(=O)O

Experiments:
[1] = Drug uptake in human HepG2 cells at 15 uM measured after 1 hr by Hoechst 33258 staining based confocal laser scanning microscopy; assay type: ADME, cell-based; conditions: hepg2, 1 h
[2] = Drug uptake in human A549 cells at 15 uM measured after 1 hr by Hoechst 33258 staining based confocal laser scanning microscopy; assay type: ADME, cell-based; conditions: a549, 1 h
[3] = Drug uptake in human L02 cells at 15 uM measured after 1 hr by Hoechst 33258 staining based confocal laser scanning microscopy; assay type: ADME, cell-based; conditions: l02, 1 h
[4] = Drug uptake in human BEAS-2B cells at 15 uM measured after 1 hr by Hoechst 33258 staining based confocal laser scanning microscopy; assay type: ADME, cell-based
[5] = Drug uptake in human HepG2 cells at 15 uM measured after 1 hr by Hoechst 33258 staining based flow cyotmetry; assay type: ADME, cell-based; conditions: hepg2, 1 h
[6] = Drug uptake in human A549 cells at 15 uM measured after 1 hr by Hoechst 33258 staining based flow cyotmetry; assay type: ADME, cell-based; conditions: a549, 1 h
[7] = Drug uptake in human L02 cells at 15 uM measured after 1 hr by Hoechst 33258 staining based flow cyotmetry; assay type: ADME, cell-based; conditions: l02, 1 h
[8] = Drug uptake in human BEAS-2B cells at 15 uM measured after 1 hr by Hoechst 33258 staining based flow cyotmetry; assay type: ADME, cell-based
HepG2 [9] = test: Cytotoxicity against human HepG2 cells assessed as cell viability at 30 uM measured after 24 hrs by CCK-8 assay relative to control; assay type: functional; conditions: read-out: Activity
A549 [10] = test: Cytotoxicity against human A549 cells assessed as cell viability at 30 uM measured after 24 hrs by CCK-8 assay relative to control; assay type: functional; conditions: read-out: Activity
HepG2 [11] = test: Cytotoxicity against human HepG2 cells assessed as reduction in cell viability measured after 24 hrs by CCK-8 assay; assay type: functional, cell-based; conditions: for IC50: HepG2, 24 h
[12] = Cytotoxicity against human L02 cells assessed as reduction in cell viability measured after 24 hrs by CCK-8 assay; assay type: toxicity, cell-based
A549 [13] = test: Cytotoxicity against human A549 cells assessed as reduction in cell viability measured after 24 hrs by CCK-8 assay; assay type: functional, cell-based; conditions: for IC50: A549, 24 h
[14] = Cytotoxicity against human BEAS-2B cells assessed as reduction in cell viability measured after 24 hrs by CCK-8 assay; assay type: toxicity, cell-based
HepG2 [15] = test: Induction of apoptosis in human HepG2 cells assessed as viable cells at 15 uM measured after 24 hrs by Annexin V-FITC/propidium iodide staining based flow cytometry relative to control; assay type: functional; conditions: read-out: Activity
A549 [16] = test: Induction of apoptosis in human A549 cells assessed as viable cells at 15 uM measured after 24 hrs by Annexin V-FITC/propidium iodide staining based flow cytometry relative to control; assay type: functional; conditions: read-out: Activity
L02 = test: Induction of apoptosis in human L02 cells assessed as reduction in viable cells at 15 uM measured after 24 hrs by Annexin V-FITC/propidium iodide staining based flow cytometry; assay type: toxicity, cell-based; conditions: l02, 24 h
BEAS-2B = test: Induction of apoptosis in human BEAS-2B cells assessed as reduction in viable cells at 15 uM measured after 24 hrs by Annexin V-FITC/propidium iodide staining based flow cytometry; assay type: toxicity, cell-based
HepG2 [17] = test: Induction of morphological changes in human HepG2 cells assessed as decrease in cell number at 15 uM measured after 24 hrs by high-throughput microscopy; assay type: functional, cell-based
HepG2 [18] = test: Induction of morphological changes in human HepG2 cells assessed as appearance of abnormal cell morphology at 15 uM measured after 24 hrs by high-throughput microscopy; assay type: functional, cell-based
HepG2 [19] = test: Induction of apoptosis in human HepG2 cells assessed as increase in late apoptotic cells at 15 uM measured after 24 hrs by Annexin V-FITC/propidium iodide staining based flow cytometry; assay type: functional, cell-based
HepG2 [20] = test: Induction of apoptosis in human HepG2 cells assessed as increase in necrotic cells at 15 uM measured after 24 hrs by Annexin V-FITC/propidium iodide staining based flow cytometry; assay type: functional, cell-based
A549 [21] = test: Induction of apoptosis in human A549 cells assessed as increase in late apoptotic cells at 15 uM measured after 24 hrs by Annexin V-FITC/propidium iodide staining based flow cytometry; assay type: functional, cell-based
A549 [22] = test: Induction of apoptosis in human A549 cells assessed as increase in necrotic cells at 15 uM measured after 24 hrs by Annexin V-FITC/propidium iodide staining based flow cytometry; assay type: functional, cell-based
A549 [23] = test: Induction of cell membrane disruption in human A549 cells assessed as increase in LDH release at 15 uM measured after 1 hr by LDH releasing reagent based assay
HepG2 [24] = test: Induction of cell membrane disruption in human HepG2 cells assessed as increase in LDH release at 15 uM measured after 1 hr by LDH releasing reagent based assay

Molecule	IC50 (HepG2 [11]) [µM]	IC50 at 24 h [12] [µM]	IC50 (A549 [13]) [µM]	IC50 at 24 h [14] [µM]	Activity (L02)	Activity (BEAS-2B)	Activity (HepG2 [17])	Activity (HepG2 [18])	Activity (HepG2 [19])	Activity (HepG2 [20])	Activity (A549 [21])	Activity (A549 [22])	Activity (A549 [23])	Activity (HepG2 [24])	further results
CC(C)C[C@H](NC(=O)[C@H](CCCCN)NC(=O)CNC(=O)[C@H](CC(C)C)NC(=O)[C@@H](NC(=O)[C@@H](NC(=O)[C@H](CC(C)C)NC(=O)[C@H](CCC(=O)O)NC(=O)[C@H](Cc1c[nH]c2ccccc12)Nc1ccc([N+](=O)[O-])c2nonc12)C(C)C)C(C)C)C(=O)N[C@@H](CC(C)C)C(=O)N[C@@H](CC(C)C)C(=O)N[C@@H](Cc1c[nH]cn1)C(=O)N[C@@H](Cc1c[nH]cn1)C(=O)N[C@@H](CC(C)C)C(=O)N[C@@H](CC(C)C)C(=O)N[C@@H](Cc1c[nH]cn1)C(=O)N[C@@H](Cc1c[nH]cn1)C(=O)N[C@@H](CC(C)C)C(=O)N[C@@H](CC(C)C)C(=O)N[C@@H](Cc1c[nH]cn1)C(=O)N[C@@H](Cc1c[nH]cn1)C(=O)N[C@@H](CCCNC(=N)N)C(=O)N[C@@H](CCCNC(=N)N)C(=O)N[C@@H](CCCNC(=N)N)C(=O)N[C@@H](CCCNC(=N)N)C(=O)N[C@@H](CCCNC(=N)N)C(=O)N[C@@H](CCCNC(=N)N)C(=O)N[C@@H](CCCNC(=N)N)C(=O)N[C@@H](CCCNC(=N)N)C(=O)N[C@@H](CCCNC(=N)N)C(=O)O (H-[X1]ELVVLGKLLLHHLLHHLLHHRRRRRRRRR-OH)															Drug uptake [1]: Active; Drug uptake [2]: Active; Drug uptake [3]: Active; Drug uptake [4]: Active; Drug uptake [5]: Active; Drug uptake [6]: Active; Drug uptake [7]: Active; Drug uptake [8]: Active
N=C(N)NCCC[C@H](NC(=O)[C@H](CCCNC(=N)N)NC(=O)[C@H](CCCNC(=N)N)NC(=O)[C@H](CCC(N)=O)NC(=O)[C@H](CCCNC(=N)N)NC(=O)[C@H](CCCNC(=N)N)NC(=O)[C@H](CCCCN)NC(=O)[C@H](CCCCN)NC(=O)[C@H](CCCNC(=N)N)NC(=O)CNC(=O)[C@@H](N)Cc1ccc(O)cc1)C(=O)O	> 100	> 100	> 100	> 100	Non-Toxic	Non-Toxic									viability at 30 µM (HepG2 [9]): > 90%; viability at 30 µM (A549 [10]): > 90%; viability at 15 µM (HepG2 [15]): > 80%; viability at 15 µM (A549 [16]): > 80%
CC(C)C[C@H](NC(=O)[C@H](CCCCN)NC(=O)CNC(=O)[C@H](CC(C)C)NC(=O)[C@@H](NC(=O)[C@@H](NC(=O)[C@H](CC(C)C)NC(=O)[C@H](CCC(=O)O)NC(=O)[C@@H](N)Cc1c[nH]c2ccccc12)C(C)C)C(C)C)C(=O)N[C@@H](CC(C)C)C(=O)N[C@@H](CC(C)C)C(=O)N[C@@H](Cc1c[nH]cn1)C(=O)N[C@@H](Cc1c[nH]cn1)C(=O)N[C@@H](CC(C)C)C(=O)N[C@@H](CC(C)C)C(=O)N[C@@H](Cc1c[nH]cn1)C(=O)N[C@@H](Cc1c[nH]cn1)C(=O)N[C@@H](CC(C)C)C(=O)N[C@@H](CC(C)C)C(=O)N[C@@H](Cc1c[nH]cn1)C(=O)N[C@@H](Cc1c[nH]cn1)C(=O)N[C@@H](CCCNC(=N)N)C(=O)N[C@@H](CCCNC(=N)N)C(=O)N[C@@H](CCCNC(=N)N)C(=O)N[C@@H](CCCNC(=N)N)C(=O)N[C@@H](CCCNC(=N)N)C(=O)N[C@@H](CCCNC(=N)N)C(=O)N[C@@H](CCCNC(=N)N)C(=O)N[C@@H](CCCNC(=N)N)C(=O)N[C@@H](CCCNC(=N)N)C(=O)O (H-WELVVLGKLLLHHLLHHLLHHRRRRRRRRR-OH)	10.1	15.6	10.5	18.5	Non-Toxic	Non-Toxic	Active	Active	Active	Active	Active	Active	Active	Active	
CC(C)C[C@H](NC(=O)[C@H](CCCCN)NC(=O)CNC(=O)[C@H](CC(C)C)NC(=O)[C@@H](NC(=O)[C@@H](NC(=O)[C@H](CC(C)C)NC(=O)[C@H](CCC(=O)O)NC(=O)[C@@H](N)Cc1c[nH]c2ccccc12)C(C)C)C(C)C)C(=O)N[C@@H](CCCNC(=N)N)C(=O)N[C@@H](CCCNC(=N)N)C(=O)N[C@@H](CCCNC(=N)N)C(=O)N[C@@H](CCCNC(=N)N)C(=O)N[C@@H](CCCNC(=N)N)C(=O)N[C@@H](CCCNC(=N)N)C(=O)N[C@@H](CCCNC(=N)N)C(=O)N[C@@H](CCCNC(=N)N)C(=O)N[C@@H](CCCNC(=N)N)C(=O)O (H-WELVVLGKLRRRRRRRRR-OH)	14.4	21.6	17.3	22.8	Non-Toxic	Non-Toxic	Active	Active	Active	Active	Active	Active	Active	Active	Activity (HepG2 [11]; DDE = dose-dependent effect): Dde; Activity (A549 [13]; DDE = dose-dependent effect): Dde
N=C(N)NCCC[C@H](NC(=O)[C@H](CCCNC(=N)N)NC(=O)[C@H](CCCNC(=N)N)NC(=O)[C@H](CCCNC(=N)N)NC(=O)[C@H](CCCNC(=N)N)NC(=O)[C@H](CCCNC(=N)N)NC(=O)[C@H](CCCNC(=N)N)NC(=O)[C@H](CCCNC(=N)N)NC(=O)[C@@H](N)CCCNC(=N)N)C(=O)O	> 100	> 100	> 100	> 100	Non-Toxic	Non-Toxic									viability at 30 µM (HepG2 [9]): > 90%; viability at 30 µM (A549 [10]): > 90%; viability at 15 µM (HepG2 [15]): > 80%; viability at 15 µM (A549 [16]): > 80%
I: H-WELVVLGKLGLRKRLRKFRNKIKEK / II: H-GLRKRLRKFR[ξN]KIKEK-OH (amide I:C-II:4)	13.2	18.4	13.1	19.8	Non-Toxic	Non-Toxic	Active	Active	Active	Active	Active	Active	Active	Active	
CC(C)C[C@H](NC(=O)[C@H](CCCCN)NC(=O)CNC(=O)[C@H](CC(C)C)NC(=O)[C@@H](NC(=O)[C@@H](NC(=O)[C@H](CC(C)C)NC(=O)[C@H](CCC(=O)O)NC(=O)[C@@H](N)Cc1c[nH]c2ccccc12)C(C)C)C(C)C)C(=O)O (H-WELVVLGKL-OH)			90		Non-Toxic	Non-Toxic									
